Experimental data: patent publication US20240139167A1, “LYSOSOME-ASSOCIATED MEMBRANE PROTEIN TARGETING COMPOUNDS AND USES THEREOF” (HADASIT MEDICAL RESEARCH SERVICES AND DEVELOPMENT LTD., priority 2021, published 2024)

Experiments:
[1] = Pharmacokinetics, tissue levels by LC-MS/MS; assay type: in vivo, mice; settings: 250 mg/kg subcutaneous
From the text: FIGS. 2A-2C include images and graphs of histopathological effects of Compound 1 and its pharmacokinetics: right panel present images of indicated tissues of sacrificed mice and stained for PG (arrows) with PAS following treatment with diastase; left panel, presents bar graphs quantifying PAS staining, based on analysis of 4 sections from each tissue in n=2 wild type, n=7 Gbe^ys/ys vehicle-treated, and n=9 Compound 1-treated mice (2A); bar graph quantifying total glycogen in the respective tissues (2B); graph of Compound 1pharmacokinetics (2C); 9 months old Gbe^ys/ys mice were SC-injected with 150 μL of Compound 1 at 250 mg/kg. Mice were sacrificed 30-, 60-, 90-, and 210-min post injection and the indicated tissues were removed, as well as 200 μL of serum drawn. […] Shown are means and SEM of results obtained from n=3 mice at each time point.
For pharmacokinetic analysis, 100 μL serum as well as brain, kidney, hind limb quad muscle, heart, liver, and spleen tissues were collected, homogenized, and extracted with acetonitrile following established guidelines. Calibration curves were made with 0, 1, 10, 100, and 1,000 ng/ml Compound 1 in 1 mg/ml solutions of 4-tert-butyl-2-(4H-1,2,4-triazol-4-yl)phenol (ChemBridge) as internal standard (IS). Tissue samples were then dissolved in 1 mg/ml IS solutions and spiked with 0-1,000 ng/ml Compound 1 to generate standard curves from which tissue levels of Compound 1 were determined. Samples were analyzed by the LC-MS/MS Sciex Triple Quad™ 5500 mass spectrometer.
Pharmacokinetic analysis is instrumental for explaining the effects of Compound 1 in-situ regardless of its innate capacity to modify polyglucosans in isolated cells. The reason for that is that timing of arrival, distribution and stability in the tissue are key determinants of the in-situ activity of any pharmacological agent. To determine the distribution and kinetic parameters of Compound 1 in different tissues, the inventors have treated Gbe^ys/ys mice with 250 mg/kg Compound 1 via subcutaneous injection, as done in the efficacy experiments. Mice were then sacrificed 0, 30-, 60-, 90-, and 210-min post administration and 100 μL serum as well as brain, kidney, hind limb skeletal muscle, heart, liver, and spleen tissues were collected, homogenized, extracted and their Compound 1 levels were analyzed by liquid chromatography tandem mass spectrometry (LC-MS/MS). The differential effects of Compound 1 on glycogen and polyglucosan content in the different tissues match its differential distribution and dwell time in each respective tissue. […] However, those levels persist up until 60 minutes post injection, which might account for the Compound 1-mediated reduction in polyglucosan, and glycogen content observed in these tissues. […] Based on the sampling times used, time to C. was 30 min for all the tissues studied indicating similar rate of absorption to all these tissues. The highest C. is observed in liver and kidney matching their well-established rapid perfusion.

[2] = biological target: T1, luminal portion of LAMP1 (Homo sapiens, UniProt P11279); assay: Surface plasmon resonance (SPR); assay type: binding
T1 sequence (P11279 29-382 limits assumed): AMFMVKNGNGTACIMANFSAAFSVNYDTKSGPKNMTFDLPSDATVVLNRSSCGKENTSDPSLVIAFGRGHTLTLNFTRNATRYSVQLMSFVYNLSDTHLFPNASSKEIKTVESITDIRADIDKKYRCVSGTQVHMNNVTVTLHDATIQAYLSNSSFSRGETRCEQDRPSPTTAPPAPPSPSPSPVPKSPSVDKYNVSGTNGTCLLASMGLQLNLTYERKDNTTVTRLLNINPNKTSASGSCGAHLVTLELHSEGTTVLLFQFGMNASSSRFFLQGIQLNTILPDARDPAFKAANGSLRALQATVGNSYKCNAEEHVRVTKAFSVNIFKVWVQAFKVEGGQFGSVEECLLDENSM
From the text: FIGS. 5A-5E include images of experiments showing hetero-assembly forms around Compound 1 and not around endogenous molecules as shown by the liquid crystals formed in experiments 1-3 (5A); image of STRING network of targets at the interactome of Compound 1 (5B); cellular thermal shift assay (CETSA) of different targets of the Compound 1 hetero-assembly (5C); surface plasmon resonance sensograms of binding of Compound 1 to LAMP1 (5D); sensogram experiments consisting of association and dissociation at the indicated concentration ranges and pH values were then conducted.
The inventors have investigated the mechanism of action of 144DG11. To that end, the inventors first decided to determine its molecular target. Nematic protein organization technique (NPOT, Inoviem, Ltd.) was applied to homogenates of APBD patient fibroblasts. The NPOT analysis has discovered protein hetero assemblies uniquely generated around 144DG11 only when it was added to the cell homogenates (FIG. 5A). The next step in this analysis has identified the interactome of protein targets interacting with 144DG11 in APBD patients' fibroblasts. […] Moreover, the inventors have tested by cellular thermal shift assay the specific interaction of 144DG11 with 6 of the 8 targets discovered by NPOT. […] This finding relates to a novel pathogenic hypothesis connecting cellular glycogen overload with glycogen trafficking to lysosomes via Starch Binding Domain containing Protein 1. To validate 144DG11's interaction with LAMP1, the inventors have used surface plasmon resonance (SPR) technology. […] The inventors hypothesized that this slow rate of association could be explained by inhibited diffusion of 144DG11 due to the bulky oligosaccharides at the glycosylation sites. Therefore, the inventors have repeated the SPR experiments with a chemically deglycosylated luminal LAMP1 domain. […] The inventors have further investigated 144DG11 binding to LAMP1 by structure-based computational docking. In the search for a putative binding site for Compound 1 in LAMP1, the inventors have analyzed the N- and C-terminal subdomains of its luminal domain (residues A29-R195 and S217-D378, respectively), which have a similar topology. These domains were modeled and computationally docked against decoys to Compound 1 at the intralysosomal pH 5 based on the known crystal structure of mouse LAMP1 C-terminal domain (PDB ID 5gv0). […] However, they might still affect Compound 1 diffusion.

[3] = system: HC and PD patient fibroblasts; assay: Seahorse ATP rate assay in Pompe disease fibroblasts; assay type: cell-based, human
Description: FIG. 17 includes a vertical bar graph showing glycolytic (1) and mitochondrial (2) ATP production determined by Agilent's Seahorse machine and ATP rate assay kit. HC and PD patient fibroblasts were serum/glucose-starved for 48 h and then full medium was replenished for 24 h without (untreated), or with (chronic) 50 μM 144DG11. Acute, 50 μM 144DG11 was added on assay for 20 min after 24 h of serum/glucose replenishment. Readings were normalized to cell number as determined by Crystal Violet staining. Shown are mean and SD values based on n=6 repeats. In acutely 144DG11-treated PD fibroblasts, glycolytic and total ATP production was increased, as compared to untreated PD cells (p<0.002, One Way ANOVA with Sidak's post-hoc correction for multiple comparisons).

COCCN(Cc1sccc1C)C(=O)c1cc(C)nc(O)c1 [Compound 1]
C. in liver and kidney, rank among tissues [1]: highest
C. in skeletal quadriceps muscle, rank among tissues [1]: lowest
accumulation in muscle [1]: negligible accumulation
levels in heart and brain [1]: intermediate levels
persistence of levels in heart and brain post injection [1]: ≤ 60 min
time to C. ([1]; all the tissues studied): 30 min
half-life ([1]; mouse, liver, sc, Gbe^ys/ys mice): > 3 h
binding to LAMP1 ([2]; cytoplasmic pH 7): not at the cytoplasmic pH 7
binding to LAMP1 ([2]; intermediate pH 6): some binding starting
binding to LAMP1 ([2]; lysosomal pH 4.5-5): specific and dose-dependent binding
kon (rate of association) ([2]; pH 4.5): slow
Kd ([2]; read-out: apparent KD): 6.3 mM
effect on ATP production ([3]; 24 h pre-treatment): not significant
overall ATP production ([3]; PD fibroblasts, 50 μM): increased
relative contribution of glycolytic ATP production at the expense of mitochondrial (OxPhos) ATP production ([3]; PD fibroblasts, 50 μM): increased
glycolytic and total ATP production ([3]; PD fibroblasts, acute 50 μM 20 min, p<0.002): increased
